Patent US6440935B1, “Inhibition of eucaryotic pathogens and neoplasms and stimulation of fibroblasts and lymphocytes with lytic peptides” (priority 1987, dated 2002)
Read-outs that look alike come from different tables or passages of the source. Residues, ends and D or L forms follow the SMILES beside them. No end group written: not given here.

Assays:
[1] = test system: Saccharomyces cerevisiae; test: Effect of lytic peptides on S. cerevisiae (plate count); details: 1 hour at 37° C., PBS pH 6.8, 500 at 0 μM
[2] = test system: EL-4 cells; test: EL-4 cytotoxicity by chromium release; assay type: cell-based; details: 30 minutes, 10^6 EL-4 cells
Method: (§1) The EL-4 cells were then incubated for 30 minutes in the presence of various peptides at different concentrations. Cytotoxicity was taken as a percentage of chromium released (measured in the culture supernatant) relative to the chromium released by EL-4 cells lysed by detergent.
(§2) Similar chromium release data were obtained using the same procedure with a 100 μM concentration of peptide, but with EL-4 cell concentrations of 2×10^6, 10^6, and 5×10^5 cells in 0.5 ml medium.
(§3) The chromium release data was also obtained by using the supernatant from unlabeled EL-4 cells cultured for 30 minutes in the presence of 100 μM peptide as medium for […] EL-4 cultured as described above. The percent cytotoxicity calculated as described above was 20.16 for cecropin SB-37, 19.73 for *cecropin SB-37, 41.96 for Shiva 1, and 106.67 for melittin.

[3] = EL-4 cytotoxicity by chromium release; assay type: cell-based; details: for cytotoxicity at 30 min, 100 μM: mouse, EL-4 cells
Method: as §1, §2, §3

[4] = EL-4 cell viability by trypan blue exclusion; assay type: cell-based; details: one hour, 95% at 0 μM
Method: EL-4 lymphoma cells were suspended in RPMI 1640 at 5,000,000/ml with 500,000 cells per well. Various concentrations of cecropin SB-37 and Shiva 1 were added and the wells incubated at 37° C. in a 5% CO2 atmosphere for one hour. Viability was determined by microscopic observation for trypan blue exclusion.

[5] = test system: mammary carcinoma; test: In vivo effect on murine mammary carcinoma; design: species or system BALB/c mouse; details: 1.76 mg (88 mg/kg) daily, three days, injected directly into the carcinoma
Method: One BALB/c mouse was given daily injections of 1.76 mg (88 mg/kg) Shiva 1 in PBS for three consecutive days as described in the foregoing examples.

[6] = test system: T. cruzi intracellular amastigotes in Vero cells; test: In vitro effect on T. cruzi intracellular amastigotes in Vero cells; assay type: cell-based, Trypanosoma cruzi; details: one hour period, relative to no peptide
Method: Vero cells at 10^5 cells/ml in MEM-FBS were mixed with Trypanosoma Cruzi in the trypomastigote stage at 10^5 cells/ml in the same medium at a 1:1 ratio of Vero cells to trypomastigotes. The mixture of Vero cells and trypomastigotes was cultured at 37° C. in a 5% CO2 atmosphere in microscope slide chambers. At 24 hours, cecropin SB-37 was added to the chambers, except for a set of controls, at a final concentration of 100 μM. […]

[7] = test system: Plasmodium falciparum in human red blood cells; details: for 3H-Hypoxanthine Uptake: 24 hours
[8] = S. intermedius 19930 viability in lytic peptide/lysozyme; details: Viability (%), lysozyme at ten times
[9] = test system: Brucella abortus; assay type: in vivo, BALB/C mice; details: 0.176 mg/day for 4 days from day 12 post infection; sacrificed day 16; control 8.15 × 10^3
[10] = test system: Brucella abortus; assay type: cell-based; details: 50 μM
[11] = test system: E. coli E/2/64; test: Lysozyme/cecropin synergism against E. coli (plate growth)
[12] = test system: Pseudomonas solanacearum
[13] = test system: Xanthomonas campestris pv. campestris; test: Plant pathogen LD50 in cecropin SB-37/lysozyme; assay type: cell-based; details: incubation at 30° C.
[14] = test system: Erwinia caratovora subsp. carotova; test: Plant pathogen LD50 in cecropin SB-37/lysozyme; assay type: cell-based; details: incubation at 30° C.
[15] = test system: Pseudomonas aeruginosa
[16] = test system: S. intermedius 19930
[17] = test system: Pseudomonas syringae pv. tabaci; test: Plant pathogen LD50 in cecropin SB-37/lysozyme; assay type: cell-based; details: incubation at 30° C.
[18] = test system: eucaryotes; test: Lytic activity, general statements of the description; details: general statement, no test described
[19] = 100 μM, 2 × 10^6 cells per 0.5 ml, read-out: Percent Cytotoxicity
[20] = supernatant from unlabeled EL-4 cells cultured 30 minutes with 100 μM peptide used as medium for labeled EL-4, read-out: percent cytotoxicity

## CC[C@H](C)[C@H](NC(=O)CN)C(=O)NCC(=O)N[C@@H](C)C(=O)N[C@H](C(=O)N[C@@H](CC(C)C)C(=O)N[C@@H](CCCCN)C(=O)N[C@H](C(=O)N[C@@H](CC(C)C)C(=O)N[C@H](C(=O)N[C@H](C(=O)NCC(=O)N[C@@H](CC(C)C)C(=O)N1CCC[C@H]1C(=O)N[C@@H](C)C(=O)N[C@@H](CC(C)C)C(=O)N[C@H](C(=O)N[C@@H](CO)C(=O)N[C@@H](Cc1c[nH]c2ccccc12)C(=O)N[C@H](C(=O)N[C@@H](CCCCN)C(=O)N[C@@H](CCCNC(=N)N)C(=O)N[C@@H](CCCCN)C(=O)N[C@@H](CCCNC(=N)N)C(=O)N[C@@H](CCC(N)=O)C(=O)N[C@@H](CCC(N)=O)C(N)=O)[C@@H](C)CC)[C@@H](C)CC)[C@@H](C)O)[C@@H](C)O)C(C)C)C(C)C [Melittin, reference compound]
[1]; 5 μM
  Plate Count (Thousands): 260 Thousands
[1]; 50 μM
  Plate Count (Thousands): 0 Thousands
[2]; 10 μM
  Percent Cytotoxicity (chromium release vs detergent-lysed cells): 109.65%
[2]; 25 μM
  Percent Cytotoxicity (chromium release vs detergent-lysed cells): 106.65%
[2]; 50 μM
  Percent Cytotoxicity (chromium release vs detergent-lysed cells): 106.81%
[2]; 100 μM
  Percent Cytotoxicity (chromium release vs detergent-lysed cells): 102.43%
[3]; [19]
  cytotoxicity at 30 min, 100 μM: 105%
[3]; [20]
  cytotoxicity at 30 min, 100 μM: 107%

## CC[C@H](C)[C@H](NC(=O)CNC(=O)[C@H](CCC(N)=O)NC(=O)[C@H](CCCCN)NC(=O)[C@@H](NC(=O)[C@H](CCC(N)=O)NC(=O)[C@H](CCCCN)NC(=O)CNC(=O)[C@@H](NC(=O)[C@H](CCCNC(=N)N)NC(=O)[C@H](CC(=O)O)NC(=O)[C@@H](NC(=O)[C@H](CCCNC(=N)N)NC(=O)[C@H](CCCNC(=N)N)NC(=O)[C@H](Cc1ccccc1)NC(=O)[C@H](CC(C)C)NC(=O)[C@H](CCCNC(=N)N)NC(=O)[C@H](Cc1c[nH]c2ccccc12)NC(=O)[C@H](CCCNC(=N)N)NC(=O)[C@@H]1CCCN1C(=O)[C@@H](N)CCSC)[C@@H](C)CC)C(C)C)[C@@H](C)CC)C(=O)N[C@@H](CC(C)C)C(=O)N[C@@H](CCCNC(=N)N)C(=O)N[C@@H](C)C(=O)NCC(=O)N1CCC[C@H]1C(=O)N[C@@H](C)C(=O)N[C@H](C(=O)N[C@@H](C)C(=O)N[C@@H](CC(C)C)C(=O)N[C@H](C(=O)NCC(=O)N[C@@H](CC(=O)O)C(=O)N[C@@H](C)C(=O)N[C@@H](CCCNC(=N)N)C(=O)N[C@@H](C)C(=O)N[C@H](C(=O)NCC(N)=O)C(C)C)C(C)C)[C@@H](C)CC [Shiva 1] (H-MPRWRLFRRIDRVGKQIKQGILRAGPAIALVGDARAVG-NH2)
[4]; 10 μM
  viability: 85%
[4]; 25 μM
  viability: 60%
[4]; 50 μM
  viability: 50%
[4]; 100 μM
  viability: 10%
[5]
  immediate cause of death at autopsy: shock
[5]; one mouse
  outcome following the third injection: died almost immediately
other
  viability: 0%
  viability at 0.01 µM: 100%
  viability at 0.1 µM: 69.6%
  viability at 1 µM: 37.9%
  viability at 5 µM: 1.5%
  viability at 7.5 µM: 0.1%
[6]
  LD50 (concentration for 50% reduction in number of infected Vero cells): about 9 μM
[7]; 24-hour period, relative to untreated infected red blood cells
  LD50 (concentration for 50% reduction in 3H-hypoxanthine uptake): about 10 μM
[8]; peptide concentration 0.01 μM
  viability at 0.01 µM: 100%
[8]; peptide concentration 0.1 μM
  viability at 0.1 µM: 81.8%
[8]; peptide concentration 0.5 μM
  viability at 0.5 µM: 65%
[8]; peptide concentration 1.0 μM
  viability at 1 µM: 42.1%
[8]; peptide concentration 5.0 μM
  viability at 5 µM: 35.2%
[8]; peptide concentration 10. μM
  viability: 1.2%
[8]; peptide concentration 50. μM
  viability: 0%
[2]; 10 μM
  Percent Cytotoxicity (chromium release vs detergent-lysed cells): 0.37%
[2]; 25 μM
  Percent Cytotoxicity (chromium release vs detergent-lysed cells): 16.7%
[2]; 50 μM
  Percent Cytotoxicity (chromium release vs detergent-lysed cells): 42.73%
[2]; 100 μM
  Percent Cytotoxicity (chromium release vs detergent-lysed cells): 82.35%
[3]; [19]
  cytotoxicity at 100 µM: 84.9%
[3]; 100 μM, 5 × 10^5 cells per 0.5 ml, read-out: Percent Cytotoxicity
  cytotoxicity at 100 µM: 98.7%
[3]; 100 μM, 10^6 cells per 0.5 ml, read-out: Percent Cytotoxicity
  cytotoxicity at 100 µM: 89.2%
[3]; [20]
  cytotoxicity: 42%

## CN(C)[C@@H]1C(O)=C(C(N)=O)C(=O)[C@@]2(O)C(O)=C3C(=O)c4c(O)cccc4[C@@](C)(O)[C@H]3C[C@@H]12 [Tetracycline, tetracycline]
[9]
  Concentration of Brucella abortus in spleen tissue: 4.4 × 10^3 Number per gram of spleen

## Cecropin B: naturally occurring potent bacteriolytic peptide obtainable from insects; sequence in Table 1 (KWKVFKKIEKMGRNIRNGIVKAGPAIAVLGEAKAL; ends and bridges not checked; UniProt P01508 27-61, looked up)
[10]
  Results (growth of Brucella abortus): No growth
[7]; 1 μM, P. falciparum 0.0625 PPRC
  3H-Hypoxanthine Uptake: 380 cpm
[7]; 1 μM, P. falciparum 0.125 PPRC
  3H-Hypoxanthine Uptake: 565 cpm
[7]; 1 μM, P. falciparum 0.25 PPRC
  3H-Hypoxanthine Uptake: 1293 cpm
[7]; 1 μM, P. falciparum 0.5 PPRC
  3H-Hypoxanthine Uptake: 2860 cpm
[7]; 20 μM, P. falciparum 0.0625 PPRC
  3H-Hypoxanthine Uptake: 405 cpm
[7]; 20 μM, P. falciparum 0.125 PPRC
  3H-Hypoxanthine Uptake: 495 cpm
[7]; 20 μM, P. falciparum 0.25 PPRC
  3H-Hypoxanthine Uptake: 1066 cpm
[7]; 20 μM, P. falciparum 0.5 PPRC
  3H-Hypoxanthine Uptake: 2333 cpm
[7]; 200 μM, P. falciparum 0.0625 PPRC
  3H-Hypoxanthine Uptake: 25 cpm
[7]; 200 μM, P. falciparum 0.125 PPRC
  3H-Hypoxanthine Uptake: 20 cpm
[7]; 200 μM, P. falciparum 0.25 PPRC
  3H-Hypoxanthine Uptake: 40 cpm
[7]; 200 μM, P. falciparum 0.5 PPRC
  3H-Hypoxanthine Uptake: 50 cpm
[1]; 5 μM
  Plate Count (Thousands): 500 Thousands
[1]; 50 μM
  Plate Count (Thousands): 75 Thousands
[1]; 750 μM
  Plate Count (Thousands): 0 Thousands
[11]; 5 μM, 90 minutes at room temperature
  growth of E. coli (plate counts): no growth of E. coli
[11]; one nanomolar and one micromolar
  growth of E. coli: positive E. coli growth

## Lysozyme
[12]
  LD50: >1000 µM
[13]
  LD50: >1000 µM
[14]
  LD50: >1000 µM
[15]
  Viability (%): 0.4%
[15]; 0.01 µM
  Viability (%): 100%
[15]; 0.1 µM
  Viability (%): 82.2%
[15]; 1 µM
  Viability (%): 52.1%
[15]; 5 µM
  Viability (%): 7.9%
[15]; 7.5 µM
  Viability (%): 0.6%
[16]; 0.01 µM
  Viability (%): 100%
[16]; 0.1 µM
  Viability (%): 100%
[16]; 0.5 µM
  Viability (%): 81.3%
[16]; 1 µM
  Viability (%): 53%
[16]; 5 µM
  Viability (%): 49.5%
[17]
  LD50: >1000 µM

## cecropin A
[18]
  lytic activity compared with other lytic peptides: about as lytically active as cecropin B and SB-37
